Measured values as given in paper PMC7768756, “BAM1/2 receptor kinase signaling drives CLE peptide-mediated formative cell divisions in Arabidopsis roots” (Proceedings of the National Academy of Sciences of the …, 2020).
Where two headings read alike, the source gives them in different places. Non-standard residues stand in square brackets, D forms with d. Residues, ends and D or L forms follow the SMILES beside them. No end group written: not given here. Hyp = O=C(O)[C@@H]1C[C@@H](O)CN1

T1: BAM1 extracellular domain (Arabidopsis thaliana, UniProt O49545)
T1 construct: Drosophila BiP secretion signal peptide (N); StrepII (C, cleaved yes); 10xHis (C, cleaved yes); made in house; host or cells: Trichoplusia ni (strain Tnao38) insect cells, baculovirus (modified pFastBac)
T1 sequence (O49545 20-637): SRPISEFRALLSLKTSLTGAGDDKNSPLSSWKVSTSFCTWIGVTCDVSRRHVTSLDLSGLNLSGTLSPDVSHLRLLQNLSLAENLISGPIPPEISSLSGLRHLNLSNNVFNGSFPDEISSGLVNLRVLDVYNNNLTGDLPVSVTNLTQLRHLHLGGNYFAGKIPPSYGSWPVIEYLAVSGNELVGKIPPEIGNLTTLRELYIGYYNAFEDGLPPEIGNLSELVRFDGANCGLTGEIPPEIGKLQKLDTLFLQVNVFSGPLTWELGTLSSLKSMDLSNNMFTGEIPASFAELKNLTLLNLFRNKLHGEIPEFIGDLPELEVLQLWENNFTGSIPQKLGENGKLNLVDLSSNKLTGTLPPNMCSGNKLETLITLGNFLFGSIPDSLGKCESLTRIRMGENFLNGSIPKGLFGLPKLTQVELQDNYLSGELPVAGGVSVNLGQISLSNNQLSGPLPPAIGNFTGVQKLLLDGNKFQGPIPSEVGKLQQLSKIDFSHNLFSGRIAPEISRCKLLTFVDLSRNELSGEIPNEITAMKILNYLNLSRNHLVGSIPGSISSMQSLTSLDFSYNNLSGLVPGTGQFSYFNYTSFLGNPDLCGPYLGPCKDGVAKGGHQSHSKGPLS

T2: BAM1 extracellular domain (BARELY ANY MERISTEM1 receptor kinase, residues 20 to 637) (Arabidopsis, UniProt O49545 20-637, biotin (by biotin ligase BirA))
T2 chain: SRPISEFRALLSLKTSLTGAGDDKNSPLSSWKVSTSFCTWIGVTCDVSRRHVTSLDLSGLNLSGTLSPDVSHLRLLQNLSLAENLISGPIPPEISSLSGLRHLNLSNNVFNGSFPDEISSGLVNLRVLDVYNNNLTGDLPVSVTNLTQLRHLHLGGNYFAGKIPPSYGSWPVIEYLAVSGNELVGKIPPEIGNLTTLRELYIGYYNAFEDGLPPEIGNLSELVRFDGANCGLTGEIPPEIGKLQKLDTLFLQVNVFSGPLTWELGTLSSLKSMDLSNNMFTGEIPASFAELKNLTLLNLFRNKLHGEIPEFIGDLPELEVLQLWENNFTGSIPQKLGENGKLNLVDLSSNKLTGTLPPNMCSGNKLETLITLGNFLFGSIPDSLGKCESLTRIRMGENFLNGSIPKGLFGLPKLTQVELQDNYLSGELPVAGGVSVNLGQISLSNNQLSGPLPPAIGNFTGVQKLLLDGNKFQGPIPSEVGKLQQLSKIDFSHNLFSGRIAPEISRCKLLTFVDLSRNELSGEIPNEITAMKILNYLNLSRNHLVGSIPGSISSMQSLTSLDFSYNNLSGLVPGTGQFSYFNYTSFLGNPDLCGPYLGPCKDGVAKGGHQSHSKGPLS

T3: BAM1 extracellular domain (BARELY ANY MERISTEM1 receptor kinase, residues 20 to 637) (Arabidopsis, UniProt O49545 20-637, biotin (by biotin ligase BirA))
T3 construct: synthetic gene, codon-optimised for Trichoplusia ni; Expressed behind the Drosophila BiP secretion signal peptide in a modified pFastBac vector; the StrepII and 10x His tags were removed with TEV protease, the Avi-tag is not cleavable and was used to capture the protein on streptavidin; also called BAM1 ectodomain; biotinylated BAM1; source: Trichoplusia ni (strain Tnao38) cells, secreted, …
T3 sequence (looked up): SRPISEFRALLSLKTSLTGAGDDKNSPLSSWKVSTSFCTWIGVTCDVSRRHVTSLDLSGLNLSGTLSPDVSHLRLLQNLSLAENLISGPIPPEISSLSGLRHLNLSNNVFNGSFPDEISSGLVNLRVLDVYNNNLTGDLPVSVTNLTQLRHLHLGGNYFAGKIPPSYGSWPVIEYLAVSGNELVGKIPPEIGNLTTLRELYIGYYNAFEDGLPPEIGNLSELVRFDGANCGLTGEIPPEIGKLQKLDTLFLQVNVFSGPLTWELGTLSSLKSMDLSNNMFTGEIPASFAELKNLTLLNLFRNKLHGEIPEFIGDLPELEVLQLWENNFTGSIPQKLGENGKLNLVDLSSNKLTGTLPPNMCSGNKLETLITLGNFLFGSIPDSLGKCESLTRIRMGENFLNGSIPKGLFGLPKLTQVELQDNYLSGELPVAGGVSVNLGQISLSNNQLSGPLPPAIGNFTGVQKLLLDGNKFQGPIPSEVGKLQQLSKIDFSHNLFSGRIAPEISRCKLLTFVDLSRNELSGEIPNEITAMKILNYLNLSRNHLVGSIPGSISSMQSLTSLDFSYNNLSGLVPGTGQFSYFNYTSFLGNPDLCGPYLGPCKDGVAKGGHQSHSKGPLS

B1: CLE13 dodecapeptide (CLE13p) (peptide, UniProt Q6NMF0 96-107, looked up)
peptide: RLVPSGPNPLHH
modifications: ends and bridges not checked
notes: CLE13p, the active dodecapeptide released from the CLE13 propeptide, Arabidopsis; source: synthetic peptide (>90% purity, Biomatik)
B2: CLE16 dodecapeptide (CLE16p) (peptide, UniProt Q8S8M2 92-103, looked up)
peptide: RLVHTGPNPLHN
modifications: ends and bridges not checked
notes: CLE16p, the active dodecapeptide released from the CLE16 propeptide, Arabidopsis; source: synthetic peptide (>90% purity, Biomatik)

How the values were obtained:
CYCD6;1 expression = test: CYCLIND6;1p::GFP reporter expression in roots after exogenous CLE peptide treatment; format: in vivo, Arabidopsis; conditions: Col-0 roots; 0.1 μM CLEp for 48 h from 3 dag, imaged 5 dag
Protocol: Seeds were surface sterilized with 70% ethanol and 0.1% Triton X-100 for 10 min, rinsed three times with 70% ethanol, and plated onto 0.5× Murashige and Skoog (MS) (pH 5.7) (Research Products International) with 8 g/L Phytoagar (Research Products International) and stratified at 4 °C for 2 d. Following stratification, seeds were germinated in a continuous light growth chamber at 22 °C to 24 °C. For peptide-treated plants, sterilized seeds were stratified and germinated on 0.5× MS plates. At 3 d after germination (dag), seedlings were transferred to either 0.5× MS plates or 0.5× MS plates supplemented with 0.1 μM CLEp for 48 h. Roots were imaged 5 dag as described in the figure legends. All synthetic peptides (>90% purity, Biomatik) (SI Appendix, Table S1) were dissolved in sterile dH2O as recommended. For treatment with dexamethasone (Dex; Sigma), seedlings were stratified and germinated on 0.5× MS plates supplemented with 10 μM Dex for 3 d before imaging.
Laser scanning confocal microscopy of roots was performed using either a C-Apochromat 40×/1.20 W Korr objective on a Zeiss laser scanning microscopy (LSM) 710 or an EC Plan-Neofluar 40×/1.30 oil differential interference contrast (DIC) M27 objective on a Zeiss LSM 880. Roots were examined by staining with 10 μM propidium iodide (PI) (Sigma-Aldrich). For images in Figs. 2B and 4 A and C and SI Appendix, Figs. S1D and S2B, seedlings were fixed in 4% paraformaldehyde in phosphate-buffered saline (PBS) for 45 min, rinsed in PBS, and cleared in ClearSee solution ([38]) overnight. Fixed seedlings were incubated in 0.2% Calcofluor white (Sigma-Aldrich) for 30 min and transferred to fresh ClearSee solution 2 to 24 h before imaging. Laser line excitations and emissions are as follows: Calcofluor white (405 nm; 410 to 551 nm), GFP (488 nm; 492 to 551 nm), YFP (514 nm; 519 to 564 nm), mCherry (561 nm; 566 to 606 nm), and PI (561 nm; 566 to 682 nm). Histological sectioning of Col-0 and bam1/2/3 roots 6 dag were prepared as previously described ([39]).

[1] = target: T1, BAM1 extracellular domain; test: Grating-coupled interferometry (GCI) binding kinetics of CLE peptides versus the BAM1 ectodomain; conditions: for koff: pH 5, read-out: koff, dissociation rate constant; for kon: pH 5, read-out: kon, association rate constant
From the text: The coding sequence of BAM1 (residues 20 to 637) was synthesized (GeneArt) with codons optimized for expression in Trichoplusia ni and cloned in a modified pFastBac vector (Geneva Biotech), harboring the Drosophila BiP secretion signal peptide and a TEV (tobacco etch virus protease) cleavable C-terminal StrepII, 10× His tag and a noncleavable Avi-tag ([41], [42]). T. ni (strain Tnao38) ([43]) cells were infected with a multiplicity of infection (MOI) of 1 at a density of 2 × 10^6 cells mL^−1 and incubated 26 h at 28 °C and 48 h at 22 °C. The secreted protein was purified from the supernatant by Ni^2+ (HisTrap Excel; GE Healthcare; equilibrated in 50 mM KPi pH 7.6, 250 mM NaCl, 1 mM 2-mercaptoethanol) and StrepII (Strep-Tactin XT Superflow high affinity chromatography: IBA; equilibrated in 20 mM Tris pH 8.0, 250 mM NaCl, 1 mM ethylenediaminetetraacetic acid) affinity chromatography. The tag was cleaved with His-tagged TEV protease at 4 °C overnight and removed by Ni^2+ affinity chromatography. Proteins were then further purified by size-exclusion chromatography on a Superdex 200 increase 10/300 GL column (GE Healthcare), equilibrated in 20 mM sodium citrate pH 5.0, 250 mM NaCl.
BAM1 protein (20 µM) was biotinylated with biotin ligase BirA (2 µM) ([42]) for 1 h at 25 °C, in a volume of 200 µL; 25 mM Tris pH 8, 150 mM NaCl, 5 mM MgCl2, 2 mM 2-mercaptoethanol, 0.15 mM biotin, 2 mM ATP, and followed by size-exclusion chromatography to purify the biotinylated protein.
Grating-coupled interferometry (GCI) experiments were derived by the Creoptix WAVE system (Creoptix). All experiments were performed on 4PCP WAVE chips (quasiplanar polycarboxylate surface; Creoptix). Borate buffer (100 mM sodium borate pH 9.0, 1 M NaCl; Xantec) was used for chip conditioning and streptavidin (Sigma) was immobilized on the chip surface with standard amine coupling; 7 min activation [1:1 mix of 400 mM N-(3-dimethylaminopropyl)-N′-ethylcarbodiimide hydrochloride and 100 mM N-hydroxysuccinimide] (Xantec), followed by injection of streptavidin (30 µg mL^−1) in 10 mM sodium acetate pH 5.0 (Sigma) until the desired density was reached, passivation of the surface (0.5% bovine serum albumin [Roche] in 10 mM sodium acetate pH 5.0) and final quenching with 1 M ethanolamine pH 8.0 for 7 min (Xantec). Then, biotinylated BAM1 (80 µg mL^−1) was captured on the chip surface. All kinetic analyses were performed at 25 °C with a 1:2 dilution series from 100 nM for CLE9 or 10 µM for the other peptides in 20 mM citrate pH 5.0, 250 mM NaCl, 0.01% Tween 20. Blank injections were used for double referencing and a dimethyl sulfoxide (DMSO) calibration curve for bulk correction. Analysis and correction of the obtained data were performed using the Creoptix WAVE control software (correction applied: X and Y offset; DMSO calibration; double referencing). Mass transport binding models with bulk correction were used to fit all experiments.

[2] = target: T2, BAM1 extracellular domain (BARELY ANY …)
[3] = target: T3, BAM1 extracellular domain (BARELY ANY …); test: grating-coupled interferometry (GCI); biotinylated BAM1 captured on streptavidin on a 4PCP WAVE chip (Creoptix WAVE); peptides as analyte, 1:2 dilution series from 10 µM; 25 °C; 20 mM citrate pH 5.0, 250 mM NaCl, 0.01% Tween 20; one-to-one binding model with mass transport; conditions: both partners purified

Molecule	koff [1]	kon [1]	also measured
RRVPSGPNPLHH [CLE12p, synthesized root expressed CLE dodecapeptide, locus At1g68795]			Upregulation of CYCD6 observed? (CYCLIND6;1p::GFP response) (CYCD6;1 expression): Yes
RLSPGGPDPQHH [CLE2p, synthesized root expressed CLE dodecapeptide, locus At4g18510]			Upregulation of CYCD6 observed? (CYCLIND6;1p::GFP response) (CYCD6;1 expression): No
RLVHTGPNPLHN [CLE16p]	1.05 s⁻¹	1.51e+08 M⁻¹ s⁻¹	
RTVPSGPDPLHH [CLV3, reference compound]	0.549 s⁻¹	38200 M⁻¹ s⁻¹	
CC(C)C[C@H](NC(=O)[C@@H](N)CCCNC(=N)N)C(=O)N[C@H](C(=O)N1C[C@H](O)C[C@H]1C(=O)N[C@@H](CO)C(=O)NCC(=O)N1C[C@H](O)C[C@H]1C(=O)N[C@@H](CC(N)=O)C(=O)N1CCC[C@H]1C(=O)N[C@@H](CC(C)C)C(=O)N[C@@H](Cc1c[nH]cn1)C(=O)N[C@@H](CC(N)=O)C(=O)O)C(C)C [CLE9, reference compound] (H-RLV[Hyp]SG[Hyp]NPLHN-OH; N-terminus and C-terminus assumed)	0.024 s⁻¹	3.76e+07 M⁻¹ s⁻¹	
RLSPGGPDPRHH [CLE1p, synthesized root expressed CLE dodecapeptide, locus At1g73165]			Upregulation of CYCD6 observed? (CYCLIND6;1p::GFP response) (CYCD6;1 expression): No
RLVPSGPNPLHH [CLE13p]	0.603 s⁻¹	5.88e+07 M⁻¹ s⁻¹	
RLVPSGPNPLHN [CLE9]			Kd [2]: 0.6 nM
RTVPSGPDPLHH [CLV3]			Kd [2]: 14000 nM
B1			Kd [3]: 10 nM
B2			Kd [3]: 6.9 nM
